Test results reported in patent publication US6204002A, “Gangliosides having fluorescent-tagged ceramide moieties” (priority 1996, dated 2001).

Assays:
[1] = format: physicochemical; settings: densitometer, GM3 adhered to a microplate; insufficient to detect influenza virus
[2] = system: influenza virus A/Aichi/2/68 (H3N2); assay: TLC/virus binding assay: binding activity of ganglioside to influenza virus

## O=C1OC2(c3ccc(O)cc3Oc3cc(O)ccc32)c2ccccc21 [GM3 fluorescein]
[1]
  fluorescence of virus-bound compound in hydrophobic conditions: very weak fluorescence

## CCCCCCCCCCCCC/C=C/[C@@H](O)[C@H](CO[C@@H]1O[C@H](CO)[C@@H](O[C@@H]2O[C@H](CO[C@]3(C(=O)O)C[C@H](O)[C@@H](NC(C)=O)[C@H]([C@H](O)[C@H](O)CO)O3)[C@H](O)[C@H](O)[C@H]2O)[C@H](O)[C@H]1O)NC(=O)CCc1ccc(/C=C/C=C/C=C/c2ccccc2)cc1 [compound 3, O-(5-acetamide-3,5-dideoxy-D-glycero-α-D-galacto-2-nonuropyranosylonate)-(2→6)-O-(β-D-galactopyranosyl)-(1→4)-O-(β-D-glucopyranosyl)-(1→1)-(2S, 3R,4E)-2-(3-(p-(6-phenyl)1,3,5-hexatrienyl)phenylpropionamide)-4-octadecene-1,3-diol]
[2]
  sensitivity relative to conventional sialyl(α2-6)lactosylceramide: 4 times
[2]; 6 nmol ganglioside spotted on TLC plate, reference point set equal to 100, FIG. 1
  relative measurement intensity (response of densitometer at 620 nm minus response at 430 nm): 100%
[2]; TLC/virus binding assay, A/Aichi/2/68 (H3N2)
  detection of influenza virus (sensitivity): very high sensitivity
[2]; according to FIG. 1, A/Aichi/2/68 (H3N2)
  detection sensitivity relative to GM3: 12 times
